Results as given in US8114862B2, “TGR5 modulators and methods of use thereof” (Intercept Pharmaceuticals, Inc., priority 2008, dated 2012).

What was measured:
[1] = biological target: bovine serum albumin (Bos taurus, UniProt P02769); experiment: Albumin binding by equilibrium dialysis; assay type: in vitro ADME; details: 100 μM BA in 5% bovine serum albumin-saline, pH 7.2
Experimental: The extent of albumin binding was evaluated by equilibrium dialysis at a fixed BA-albumin ratio. BA was dissolved at a concentration of 100 μM in 5% bovine serum albumin-saline solution (pH 7.2) and left to stand for 24 h at 25° C. Two milliliters of this solution was dialyzed in cellulose sacs having a molecular weight cut-off of 12-14,000 against 25 ml of saline solution. The system was equilibrated by mechanical gently shaking for 72 h at 25° C. BA concentrations of the dialyzed solution (corresponding to the free unbound fraction) and of the starting solution were determined with HPLC-ESI-MS/MS in the same conditions of the previous analysis.
The percent of albumin binding was calculate from the initial BA concentration and from the unbound concentration in the dialyzed fraction.

[2] = Stability in human liver microsomes; details: liver microsomes
[3] = biological target: PXR (Homo sapiens, UniProt O75469); experiment: PXR ligands competition assay (binding assay)
Sequence of PXR (O75469 whole entry, species assumed): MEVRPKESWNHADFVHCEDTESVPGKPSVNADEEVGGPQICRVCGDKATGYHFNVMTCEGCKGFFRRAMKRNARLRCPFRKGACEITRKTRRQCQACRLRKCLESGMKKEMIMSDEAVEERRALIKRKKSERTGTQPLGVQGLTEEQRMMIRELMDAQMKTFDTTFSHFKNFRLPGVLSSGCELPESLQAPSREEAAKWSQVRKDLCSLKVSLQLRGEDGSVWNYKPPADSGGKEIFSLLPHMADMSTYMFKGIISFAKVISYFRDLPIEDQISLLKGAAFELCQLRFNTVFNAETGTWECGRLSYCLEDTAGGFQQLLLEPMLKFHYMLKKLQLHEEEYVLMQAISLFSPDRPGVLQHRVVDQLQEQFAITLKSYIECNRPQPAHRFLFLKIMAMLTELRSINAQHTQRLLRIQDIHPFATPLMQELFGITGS

[4] = biological target: T1, LXRα (Homo sapiens, UniProt Q13133); experiment: LXR coactivator recruitment (alphascreen); assay type: biochemical
T1 sequence (Q13133 1-447): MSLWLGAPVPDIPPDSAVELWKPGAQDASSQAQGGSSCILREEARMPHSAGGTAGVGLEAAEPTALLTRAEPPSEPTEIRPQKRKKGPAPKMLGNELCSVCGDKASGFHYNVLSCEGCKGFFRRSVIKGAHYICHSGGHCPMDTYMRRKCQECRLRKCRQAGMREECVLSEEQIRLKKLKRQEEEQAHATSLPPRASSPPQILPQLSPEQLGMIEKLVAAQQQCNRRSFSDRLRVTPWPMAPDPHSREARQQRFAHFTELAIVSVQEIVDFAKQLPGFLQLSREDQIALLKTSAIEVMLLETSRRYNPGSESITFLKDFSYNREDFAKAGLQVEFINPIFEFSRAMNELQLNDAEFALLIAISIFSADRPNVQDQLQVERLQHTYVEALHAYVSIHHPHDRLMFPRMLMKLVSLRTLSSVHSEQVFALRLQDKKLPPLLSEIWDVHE

[5] = tested on: DIO and db/db mice; experiment: Glucose homeostasis and insulin sensitivity in DIO and db/db mice (Example 21); assay type: in vivo, mouse
Experimental: Animals were housed and bred according to standardized procedures (Argmann and Auwerx, 2006b). Age-matched male mice were used for all experiments. Genetically engineered mouse models (GEMMs), i.e., TGR5-Tg and TGR5^−/− mice, were generated as described in the Supplemental Data. […]; Research Diets) for at least 8 weeks, as mentioned in the text and figure legends. […] Mouse phenotyping experiments were performed according to EMPRESS protocols (see, for example, Empress (European Mouse Phenotyping Resource of Standardised Screening) website) and were aimed to assess food and water intake, body composition (Argmann et al., 2006a, Curr. Protoc. Mol. Biol. Chapter 29, Unit 29A, 23), energy expenditure (Argmann et al., 2006a, Curr. Protoc. Mol. Biol. Chapter 29, Unit 29A, 23), glucose and lipid homeostasis (Argmann et al., 2006b, Curr. Protoc. Mol. Biol. Chapter 29, Unit 29A, 22); Heikkinen et al., 2007, Curr. Protoc. Mol. Chapter. 29, Unit 29B, 23; Mataki et al., 2007, Mol. Cell. Biol. 27, 8330), and plasma biochemistry (Argmann and Auwerx, 2006a, Curr. Protoc. Mol. Biol. Chapter 29, Unit 29A, 22). Tissues and blood were collected and processed for histopathology, blood chemistry, and gene expression according to standardized procedures (Argmann and Auwerx, 2006a; Feige et al., 2008b; Mark et al., 2007; Watanabe et al., 2006). Hyperinsulinemic euglycemic clamp studies were performed as described (Feige et al., 2008b), with minor modifications including a change in the initial insulin bolus (30 mU/kg) and insulin infusion rate (10 mU/min/kg). Plasma GLP-1 levels were measured by ELISA (Millipore) on blood collected by retro-orbital puncture. […].
To further characterize the impact of compound Ih3e on glucose homeostasis and insulin sensitivity, a hyperinsulinemic euglycemic glucose clamp was performed on these DIO mice. […]. These effects correlated with normalization in the expression of key genes involved in hepatic glucose homeostasis (FIG. 21G).

Sequence of bovine serum albumin (P02769 25-607): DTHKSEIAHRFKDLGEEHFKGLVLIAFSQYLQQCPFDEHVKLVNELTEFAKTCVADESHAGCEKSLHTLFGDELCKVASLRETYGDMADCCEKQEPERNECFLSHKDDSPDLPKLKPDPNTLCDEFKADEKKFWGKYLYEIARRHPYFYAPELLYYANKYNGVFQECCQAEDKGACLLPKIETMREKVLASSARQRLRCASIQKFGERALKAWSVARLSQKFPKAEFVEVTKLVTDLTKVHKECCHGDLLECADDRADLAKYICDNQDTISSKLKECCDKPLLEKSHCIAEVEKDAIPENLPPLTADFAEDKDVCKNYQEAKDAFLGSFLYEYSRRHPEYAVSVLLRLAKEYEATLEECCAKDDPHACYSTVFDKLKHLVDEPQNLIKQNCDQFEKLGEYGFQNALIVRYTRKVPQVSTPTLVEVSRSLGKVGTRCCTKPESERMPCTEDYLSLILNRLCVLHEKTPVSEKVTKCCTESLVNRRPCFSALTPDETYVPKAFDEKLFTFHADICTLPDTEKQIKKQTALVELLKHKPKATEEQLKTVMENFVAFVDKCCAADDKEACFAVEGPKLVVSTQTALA

## CC[C@H]1[C@@H](O)[C@@H]2[C@H](C[C@H](O)[C@]3(C)[C@@H]([C@H](C)C[C@H](C)C(=O)O)CC[C@@H]23)[C@@]2(C)CC[C@@H](O)C[C@@H]12 [Ih3e, 6α-ethyl-(23S)-methyl-3α,7α,12α trihydroxy-5β-cholan-24-oic acid]
[1]
  Albumin Binding: 62%
[2]
  half-life: 32.4 h
[3]
  IC50: 110 µM
[4]
  LXRα Activation EC50: No activity
[5]; DIO and db/db mice
  fasting glucose and insulin levels: decreased
  glucose-stimulated insulin secretion profile: improvement
[5]; DIO and db/db mice, 30 mkd
  glucose tolerance after an oral challenge with glucose: robustly improved glucose tolerance
[5]; DIO mice, hyperinsulinemic euglycemic clamp
  glucose infusion rate required to maintain euglycemia: virtually identical to that observed in CD-fed control mice
[5]; HF-fed C57BL6/J mice, 30 mg/kg/d for 8 weeks
  body weight: 32.26 ± 0.95 g
[5]; HF-fed mice, clamp
  hepatic glucose production, glucose disposal rate, suppression of glucose production by insulin: normalized these parameters to the values observed in CD-fed mice
[5]; clamp
  insulin-stimulated 14C-deoxyglucose uptake: reduced insulin resistance in liver and muscle
[5]; mouse, in vivo
  expression of key genes involved in hepatic glucose homeostasis: normalization
